Assay results reported in ChEMBL document CHEMBL4342470, “Detection of Active Granzyme A in NK92 Cells with Fluorescent Activity-Based Probe” (J Med Chem, 2020).

What was measured:
Type in all cases: cell-based
Details in all cases: mda-mb-231, 24 h
MDA-MB-231 [1] = test: Toxicity in human MDA-MB-231 cells assessed as reduction in cell viability at >1 uM incubated for 24 hrs by MTS assay
MDA-MB-231 [2] = test: Toxicity in human MDA-MB-231 cells assessed as reduction in cell viability at <1 uM incubated for 24 hrs by MTS assay
MDA-MB-231 [3] = test: Toxicity in human MDA-MB-231 cells assessed as reduction in cell viability at 10 uM incubated for 24 hrs by MTS assay

Q: What does the source list for `CN1\C(=C/C=C/C=C/C2N(CCCCCC(=O)NCCCCCC(=O)N3Cc4ccccc4C[C@H]3C(=O)NCC(=O)N3C4CCCCC4C[C@H]3C(=O)NC(CCCNC(=N)N)P(=O)(Oc3ccccc3)Oc3ccccc3)c3ccccc3C2(C)C)C(C)(C)c2ccccc21` (stereo partly drawn)?
A: Activity (MDA-MB-231 [1]): Toxic; Activity (MDA-MB-231 [2]): Non-Toxic

Q: How did the Activity (MDA-MB-231 [3]) turn out when `COC(=O)CCC(=O)N1Cc2ccccc2C[C@H]1C(=O)NCC(=O)N1C2CCCCC2C[C@H]1C(=O)NC(CCCNC(=N)N)P(=O)(Oc1ccccc1)Oc1ccccc1` (stereo partly drawn) was run?
A: Non-Toxic
